Measurements taken from PubChem BioAssay AID1963843 (Molecular Pharmacology Branch, DTP, NCI, 2024).

System: 616215-338-R-J1-PDC complex spheroid viability
Experiment: Anticancer human tumor 616215-338-R-J1-PDC patient-derived colon adenocarcinoma cell line growth inhibition [POLQ]
Conditions: for IC50: curve of first compound; for viability, T/C: stronger effect = lower value
Method in brief: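 Three-cell-type spheroids modelling solid tumor plus stroma served as the readout system; POL inhibitors were tested individually and in combination, concentration ranges set by clinical Cmax where known.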

[1] = second compound 0.0316 µM, first compound 0.0316 µM
[2] = second compound 0.0316 µM, first compound 0.1 µM
[3] = second compound 0.0316 µM, first compound 0.316 µM
[4] = second compound 0.0316 µM, first compound 1 µM
[5] = second compound 0.0316 µM, first compound 3.16 µM
[6] = second compound 0.0316 µM, first compound 10 µM
[7] = second compound 0.1 µM, first compound 0.0316 µM
[8] = second compound 0.1 µM, first compound 0.1 µM
[9] = second compound 0.1 µM, first compound 0.316 µM
[10] = second compound 0.1 µM, first compound 1 µM
[11] = second compound 0.1 µM, first compound 3.16 µM
[12] = second compound 0.1 µM, first compound 10 µM
[13] = second compound 0.316 µM, first compound 0.0316 µM
[14] = second compound 0.316 µM, first compound 0.1 µM
[15] = second compound 0.316 µM, first compound 0.316 µM
[16] = second compound 0.316 µM, first compound 1 µM
[17] = second compound 0.316 µM, first compound 3.16 µM
[18] = second compound 0.316 µM, first compound 10 µM
[19] = second compound 1 µM, first compound 0.0316 µM
[20] = second compound 1 µM, first compound 0.1 µM
[21] = second compound 1 µM, first compound 0.316 µM
[22] = second compound 1 µM, first compound 1 µM
[23] = second compound 1 µM, first compound 3.16 µM
[24] = second compound 1 µM, first compound 10 µM
[25] = second compound 3.16 µM, first compound 0.0316 µM
[26] = second compound 3.16 µM, first compound 0.1 µM
[27] = second compound 3.16 µM, first compound 0.316 µM
[28] = second compound 3.16 µM, first compound 1 µM
[29] = second compound 3.16 µM, first compound 3.16 µM
[30] = second compound 3.16 µM, first compound 10 µM
[31] = second compound 10 µM, first compound 0.0316 µM
[32] = second compound 10 µM, first compound 0.1 µM
[33] = second compound 10 µM, first compound 0.316 µM
[34] = second compound 10 µM, first compound 1 µM
[35] = second compound 10 µM, first compound 3.16 µM
[36] = second compound 10 µM, first compound 10 µM
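Note: spheroids exposed to compounds for one week before readout.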
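Throughout, for viability, T/C: percent viability relative to DMSO vehicle wells taken as 100%.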

Compound: C#Cc1c(F)ccc2cc(O)cc(-c3ncc4c(N5CC6CCC(C5)N6)nc(OCC56CCCN5CC(F)C6)nc4c3F)c12 (stereo unspecified) + Cc1cccc(N(C)C(=O)C2C(O)CCN2c2nc(C)cc(C(F)(F)F)c2C#N)c1
- IC50 (second compound 0.0316 µM): > 10 µM
- IC50 (second compound 0.1 µM): > 10 µM
- IC50 (second compound 0.316 µM): > 10 µM
- IC50 (second compound 1 µM): > 10 µM
- IC50 (second compound 3.16 µM): > 10 µM
- IC50 (second compound 10 µM): > 10 µM
- viability, T/C [1]: 88.6%
- viability, T/C [2]: 109%
- viability, T/C [3]: 94.2%
- viability, T/C [4]: 101%
- viability, T/C [5]: 113%
- viability, T/C [6]: 71.8%
- viability, T/C [7]: 101%
- viability, T/C [8]: 110%
- viability, T/C [9]: 103%
- viability, T/C [10]: 109%
- viability, T/C [11]: 103%
- viability, T/C [12]: 73.9%
- viability, T/C [13]: 99.8%
- viability, T/C [14]: 101%
- viability, T/C [15]: 98.1%
- viability, T/C [16]: 99.6%
- viability, T/C [17]: 91.8%
- viability, T/C [18]: 69.8%
- viability, T/C [19]: 103%
- viability, T/C [20]: 107%
- viability, T/C [21]: 94.9%
- viability, T/C [22]: 108%
- viability, T/C [23]: 104%
- viability, T/C [24]: 64.3%
- viability, T/C [25]: 104%
- viability, T/C [26]: 99.2%
- viability, T/C [27]: 101%
- viability, T/C [28]: 101%
- viability, T/C [29]: 103%
- viability, T/C [30]: 66.7%
- viability, T/C [31]: 101%
- viability, T/C [32]: 101%
- viability, T/C [33]: 108%
- viability, T/C [34]: 96.3%
- viability, T/C [35]: 73.9%
- viability, T/C [36]: 67.8%

Compound: CC1COCCN1c1cc(C2(O)CC3CCC(C2)O3)c2cnn(-c3ccn[nH]3)c2n1 (stereo unspecified) + Cc1cccc(N(C)C(=O)C2C(O)CCN2c2nc(C)cc(C(F)(F)F)c2C#N)c1
- IC50 (second compound 0.0316 µM): 3.91 µM
- IC50 (second compound 0.1 µM): 2.95 µM
- IC50 (second compound 0.316 µM): 2.75 µM
- IC50 (second compound 1 µM): 3.78 µM
- IC50 (second compound 3.16 µM): 4.3 µM
- IC50 (second compound 10 µM): 1.4 µM
- viability, T/C [1]: 98.1%
- viability, T/C [2]: 102%
- viability, T/C [3]: 76.6%
- viability, T/C [4]: 65.3%
- viability, T/C [5]: 56.2%
- viability, T/C [6]: 38.9%
- viability, T/C [7]: 101%
- viability, T/C [8]: 99.1%
- viability, T/C [9]: 76.2%
- viability, T/C [10]: 71.7%
- viability, T/C [11]: 46.5%
- viability, T/C [12]: 33.6%
- viability, T/C [13]: 106%
- viability, T/C [14]: 103%
- viability, T/C [15]: 74.9%
- viability, T/C [16]: 61.4%
- viability, T/C [17]: 53.5%
- viability, T/C [18]: 33.6%
- viability, T/C [19]: 105%
- viability, T/C [20]: 94.7%
- viability, T/C [21]: 74.2%
- viability, T/C [22]: 70%
- viability, T/C [23]: 57.9%
- viability, T/C [24]: 33%
- viability, T/C [25]: 106%
- viability, T/C [26]: 92%
- viability, T/C [27]: 71.1%
- viability, T/C [28]: 71.8%
- viability, T/C [29]: 58.1%
- viability, T/C [30]: 36.6%
- viability, T/C [31]: 105%
- viability, T/C [32]: 94.6%
- viability, T/C [33]: 68.8%
- viability, T/C [34]: 53.4%
- viability, T/C [35]: 44%
- viability, T/C [36]: 30.8%

Compound: CCc1cc2c(N3CCc4c(cc(Cn5ccnc5)cc4-c4cn(C)nc4C(F)(F)F)C3=O)ccnc2c(OC)n1 + Cc1cccc(N(C)C(=O)C2C(O)CCN2c2nc(C)cc(C(F)(F)F)c2C#N)c1
- IC50 (second compound 0.0316 µM): 8.63 µM
- IC50 (second compound 0.1 µM): 6.35 µM
- IC50 (second compound 0.316 µM): 4.78 µM
- IC50 (second compound 1 µM): 6.68 µM
- IC50 (second compound 3.16 µM): 3.9 µM
- IC50 (second compound 10 µM): 5.8 µM
- viability, T/C [1]: 98%
- viability, T/C [2]: 102%
- viability, T/C [3]: 86.4%
- viability, T/C [4]: 69.4%
- viability, T/C [5]: 63.9%
- viability, T/C [6]: 46.8%
- viability, T/C [7]: 107%
- viability, T/C [8]: 106%
- viability, T/C [9]: 83.2%
- viability, T/C [10]: 84.2%
- viability, T/C [11]: 52.7%
- viability, T/C [12]: 46.3%
- viability, T/C [13]: 106%
- viability, T/C [14]: 102%
- viability, T/C [15]: 94%
- viability, T/C [16]: 70.8%
- viability, T/C [17]: 54.5%
- viability, T/C [18]: 43.8%
- viability, T/C [19]: 113%
- viability, T/C [20]: 104%
- viability, T/C [21]: 88.4%
- viability, T/C [22]: 74.1%
- viability, T/C [23]: 58.8%
- viability, T/C [24]: 45.2%
- viability, T/C [25]: 97%
- viability, T/C [26]: 94.8%
- viability, T/C [27]: 95%
- viability, T/C [28]: 63%
- viability, T/C [29]: 59.3%
- viability, T/C [30]: 41.3%
- viability, T/C [31]: 98%
- viability, T/C [32]: 88.6%
- viability, T/C [33]: 90.9%
- viability, T/C [34]: 61.7%
- viability, T/C [35]: 60.7%
- viability, T/C [36]: 43.5%
